From patent publication US8623857B2, “N-phenyl imidazole carboxamide inhibitors of 3-phosphoinositide-dependent protein kinase-1” (Merck Sharp & Dohme Corp., priority 2010, dated 2014)

target: T1, recombinant human PDK1 (Homo sapiens, UniProt O15530); experiment: PDK1 IMAP fluorescence polarization assay (inhibition of peptide substrate phosphorylation); type: biochemical; conditions: Table 6; 10 nM PDK1 enzyme, 100 nM peptide substrate, 100 nM PIFtide, 2.5 uM ATP, 1.5 hours
T1 construct: containing amino acids 51-556 of the human PDK1 enzyme; made in house; host or cells: Sf9 insect cells
T1 sequence (O15530 51-556): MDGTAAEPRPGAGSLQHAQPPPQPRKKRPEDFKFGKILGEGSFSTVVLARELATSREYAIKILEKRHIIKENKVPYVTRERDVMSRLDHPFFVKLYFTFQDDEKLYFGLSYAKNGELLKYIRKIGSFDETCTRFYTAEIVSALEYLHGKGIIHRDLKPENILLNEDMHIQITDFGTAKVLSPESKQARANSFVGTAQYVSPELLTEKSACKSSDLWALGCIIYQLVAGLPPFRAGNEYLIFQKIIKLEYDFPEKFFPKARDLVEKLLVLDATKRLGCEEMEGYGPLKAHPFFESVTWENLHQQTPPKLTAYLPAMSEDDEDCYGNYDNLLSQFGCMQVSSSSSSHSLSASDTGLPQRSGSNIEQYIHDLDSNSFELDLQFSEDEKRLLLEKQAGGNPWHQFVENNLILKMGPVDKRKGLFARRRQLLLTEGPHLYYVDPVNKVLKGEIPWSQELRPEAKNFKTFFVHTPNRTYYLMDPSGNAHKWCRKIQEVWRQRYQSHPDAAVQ

| Structure (SMILES) | IC50 |
| --- | --- |
| Cc1cc(-c2c[nH]c(C(=O)Nc3cccc(F)c3N3CCC(C(=O)N4CCOCC4CN)CC3)n2)ccn1 (centres unmarked) [Compound 81, N-[2-[4-[[3-(aminomethyl)-4-morpholinyl]carbonyl]-1-piperidinyl]-3-fluorophenyl]-4-(2-methyl-4-pyridinyl)-1H-imidazole-2-carboxamide] | 51 to 250 nM |
| Cc1cc(-c2c[nH]c(C(=O)Nc3cccc(F)c3N3CCC[C@@H](N)C3)n2)cc(N)n1 [Compound 24, 4-(2-amino-6-methyl-4-pyridinyl)-N-[2-(3(R)-amino-1-piperidinyl)-3-fluorophenyl]-1H-imidazole-2-carboxamide] | 1 to 50 nM |
| NC(=O)N[C@@H]1CCCN(c2c(F)cccc2NC(=O)c2nc(Br)c[nH]2)C1 [Compound 15, N-[2-[3(R)-[(aminocarbonyl)amino]-1-piperidinyl]-3-fluorophenyl]-4-bromo-1H-imidazole-2-carboxamide] | 1000 to 5000 nM |
| Cn1cc(-c2c[nH]c(C(=O)Nc3cccc(F)c3N3CCC[C@@H](N)C3)n2)cn1 [Compound 14, N-[2-(3(R)-amino-1-piperidinyl)-3-fluorophenyl]-4-(1-methyl-1H-pyrazol-4-yl)-1H-imidazole-2-carboxamide] | 251 to 1000 nM |
| NCC1CCN(c2c(F)cccc2NC(=O)c2nc(-c3cccc(Cl)c3)c[nH]2)CC1 [Compound 34, N-[2-[4-(aminomethyl)-1-piperidinyl]-3-fluorophenyl]-4-(3-chlorophenyl)-1H-imidazole-2-carboxamide] | 51 to 250 nM |
| Cc1cc(-c2c[nH]c(C(=O)Nc3cccc(F)c3N3CCC(C(=O)N4CCC5(CC4)CNC(=O)C5)CC3)n2)ccn1 [Compound 93, N-[3-fluoro-2-[4-[(3-oxo-2,8-diazaspiro[4.5]dec-8-yl)carbonyl]-1-piperidinyl]phenyl]-4-(2-methyl-4-pyridinyl)-1H-imidazole-2-carboxamide] | 251 to 1000 nM |
| Cc1cc(-c2c[nH]c(C(=O)Nc3cccc(F)c3N3CCC(C(=O)N4CC5CNC(C5)C4)CC3)n2)ccn1 (centres unmarked) [Compound 91, N-[2-[4-(3,6-diazabicyclo[3.2.1]oct-3-ylcarbonyl)-1-piperidinyl]-3-fluorophenyl]-4-(2-methyl-4-pyridinyl)-1H-imidazole-2-carboxamide] | 51 to 250 nM |
| Cc1cc(-c2c[nH]c(C(=O)Nc3cccc(F)c3N3CCC(C(=O)N4CCC4)CC3)n2)ccn1 [Compound 66, N-[2-[4-(1-azetidinylcarbonyl)-1-piperidinyl]-3-fluorophenyl]-4-(2-methyl-4-pyridinyl)-1H-imidazole-2-carboxamide] | 1000 to 5000 nM |
| NCC1CCN(c2c(F)cccc2NC(=O)c2nc(-c3ccnc(NCc4ccccc4)c3)c[nH]2)CC1 [Compound 35, N-[2-[4-(aminomethyl)-1-piperidinyl]-3-fluorophenyl]-4-[2-[(phenylmethyl)amino]-4-pyridinyl]-1H-imidazole-2-carboxamide] | 1 to 50 nM |
| NCC1CCN(c2c(F)cccc2NC(=O)c2nc(-c3cc(NCc4ccc(F)c(F)c4)ncn3)c[nH]2)CC1 [Compound 74, N-[2-[4-(aminomethyl)-1-piperidinyl]-3-fluorophenyl]-4-[6-[[(3,4-difluorophenyl)methyl]amino]-4-pyrimidinyl]-1H-imidazole-2-carboxamide] | 51 to 250 nM |
| Nc1ccc(N2CCC[C@@H](N)C2)c(NC(=O)c2nc(Br)c[nH]2)c1 [Compound 16, N-[5-amino-2-(3(R)-amino-1-piperidinyl)phenyl]-4-bromo-1H-imidazole-2-carboxamide] | 51 to 250 nM |
| N#Cc1cccc(-c2c[nH]c(C(=O)Nc3cccc(F)c3N3CCC(CN)CC3)n2)n1 [Compound 44, N-[2-[4-(aminomethyl)-1-piperidinyl]-3-fluorophenyl]-4-(6-cyano-2-pyridinyl)-1H-imidazole-2-carboxamide] | 251 to 1000 nM |
| Cc1cc(-c2c[nH]c(C(=O)Nc3cccc(F)c3N3CCC(C(=O)N4CC5CC4CO5)CC3)n2)ccn1 (centres unmarked) [Compound 79, N-[3-fluoro-2-[4-(2-oxa-5-azabicyclo[2.2.1]hept-5-ylcarbonyl)-1-piperidinyl]phenyl]-4-(2-methyl-4-pyridinyl)-1H-imidazole-2-carboxamide] | 1000 to 5000 nM |
| N[C@@H]1CCCN(c2c(F)cccc2NC(=O)c2nc(-c3cnn(Cc4cccnc4)c3)c[nH]2)C1 [Compound 13, N-[2-(3(R)-amino-1-piperidinyl)-3-fluorophenyl]-4-[1-(3-pyridinylmethyl)-1H-pyrazol-4-yl]-1H-imidazole-2-carboxamide] | 51 to 250 nM |

same assay, conditions: Table 10; compounds 97-132

| Structure (SMILES) | IC50 |
| --- | --- |
| CNc1nc(-c2c[nH]c(C(=O)Nc3cccc(F)c3N3CCC[C@@H](N)C3)n2)cc(N2CC(C(=O)NC3CCCCC3)CCC2C)n1 (mixture of isomers) [Compound 114, 1-(6-(2-(2-((R)-3-aminopiperidin-1-yl)-3-fluorophenylcarbamoyl)-1H-imidazol-4-yl)-2-(methylamino)pyrimidin-4-yl)-N-cyclohexyl-6-methylpiperidine-3-carboxamide] | 1 to 50 nM |
| CNc1nc(-c2c[nH]c(C(=O)Nc3cccc(F)c3N3CCC(CN)CC3)n2)cc(N2C[C@@H](C(=O)NC3CCCCC3)CC[C@H]2C)n1 [Compound 115, (3S,6R)-1-(6-(2-(2-(4-(aminomethyl)piperidin-1-yl)-3-fluorophenylcarbamoyl)-1H-imidazol-4-yl)-2-(methylamino)pyrimidin-4-yl)-N-cyclohexyl-6-methylpiperidine-3-carboxamide] | 1 to 50 nM |
| CNc1nc(-c2c[nH]c(C(=O)Nc3cccc(F)c3N3CCO[C@@H](CN)C3)n2)cc(N2C[C@@H](C(=O)NC3CCCCC3)CC[C@H]2C)n1 [Compound 117, (3S,6R)-1-(6-(2-(2-((S)-2-(aminomethyl)morpholino)-3-fluorophenylcarbamoyl)-1H-imidazol-4-yl)-2-(methylamino)pyrimidin-4-yl)-N-cyclohexyl-6-methylpiperidine-3-carboxamide] | 1 to 50 nM |
| CNc1nc(-c2c[nH]c(C(=O)Nc3cccc(F)c3N3CCC(CN)CC3)n2)cc(N2CCN(C(=O)OC)CC2)n1 [Compound 100, methyl 4-(6-(2-(2-(4-(aminomethyl)piperidin-1-yl)-3-fluorophenylcarbamoyl)-1H-imidazol-4-yl)-2-(methylamino)pyrimidin-4-yl)piperazine-1-carboxylate] | 1 to 50 nM |
| CNc1nc(-c2c[nH]c(C(=O)Nc3cccc(F)c3N3CCC(CN)CC3)n2)cc(N2CCN(C(C)=O)CC2)n1 [Compound 101, 4-(6-(4-acetylpiperazin-1-yl)-2-(methylamino)pyrimidin-4-yl)-N-(2-(4-(aminomethyl)piperidin-1-yl)-3-fluorophenyl)-1H-imidazole-2-carboxamide] | 1 to 50 nM |
| CNc1nc(-c2c[nH]c(C(=O)Nc3cccc(F)c3N3CCC(CN)CC3)n2)cc(N2CCC[C@@H](N)C2)n1 [Compound 126, (R)—N-(2-(4-(aminomethyl)piperidin-1-yl)-3-fluorophenyl)-4-(6-(3-aminopiperidin-1-yl)-2-(methylamino)pyrimidin-4-yl)-1H-imidazole-2-carboxamide] | 1 to 50 nM |
| CNc1nc(-c2c[nH]c(C(=O)Nc3cccc(F)c3N3CCO[C@H](CN)C3)n2)cc(N2CC(C(=O)NC3CCCCC3)CCC2C)n1 (mixture of isomers) [Compound 111, 1-(6-(2-(2-((R)-2-(aminomethyl)morpholino)-3-fluorophenylcarbamoyl)-1H-imidazol-4-yl)-2-(methylamino)pyrimidin-4-yl)-N-cyclohexyl-6-methylpiperidine-3-carboxamide] | 1 to 50 nM |
| CNc1nc(-c2c[nH]c(C(=O)Nc3cccc(F)c3N3CCC4(CC3)CNC4)n2)cc(N2CC(C(=O)NC3CCCCC3)CCC2C)n1 (racemic) [Compound 118, N-cyclohexyl-1-(6-(2-(3-fluoro-2-(2,7-diazaspiro[3.5]nonan-7-yl)phenylcarbamoyl)-1H-imidazol-4-yl)-2-(methylamino)pyrimidin-4-yl)-6-methylpiperidine-3-carboxamide] | 1 to 50 nM |
| CNc1nc(-c2c[nH]c(C(=O)Nc3cccc(F)c3N3CCC(CN)CC3)n2)cc(N2CC[C@@](COC)(C(=O)NCc3ccccc3)C2)n1 [Compound 130, (R)—N-(2-(4-(aminomethyl)piperidin-1-yl)-3-fluorophenyl)-4-(6-(3-(benzylcarbamoyl)-3-(methoxymethyl)pyrrolidin-1-yl)-2-(methylamino)pyrimidin-4-yl)-1H-imidazole-2-carboxamide] | 1 to 50 nM |
| CNc1nc(-c2c[nH]c(C(=O)Nc3ccccc3N3CCNCC3)n2)cc(N2C[C@@H](C(=O)NC3CCCCC3)CC[C@@H]2C)n1 (racemic) [Compound 104, N-cyclohexyl-6-methyl-1-(2-(methylamino)-6-(2-(2-(piperazin-1-yl)phenylcarbamoyl)-1H-imidazol-4-yl)pyrimidin-4-yl)piperidine-3-carboxamide] | 51 to 250 nM |
| CNc1nc(-c2c[nH]c(C(=O)Nc3cccc(F)c3N3CCC(CN)CC3)n2)cc(N2CC[C@@](COC)(C(=O)NC3CC3)C2)n1 [Compound 131, (R)—N-(2-(4-(aminomethyl)piperidin-1-yl)-3-fluorophenyl)-4-(6-(3-(cyclopropylcarbamoyl)-3-(methoxymethyl)pyrrolidin-1-yl)-2-(methylamino)pyrimidin-4-yl)-1H-imidazole-2-carboxamide] | 1 to 50 nM |
| CNc1nc(-c2c[nH]c(C(=O)Nc3ccccc3N3CCC4(CC3)OCCO4)n2)cc(N2CC(C(=O)NC3CCCCC3)CCC2C)n1 (racemic) [Compound 113] | 1 to 50 nM |
